According to ChEMBL document CHEMBL1201862, “PubChem BioAssay data set” (2004):
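Assay format: 96-well plates, 48-hour exposure. GI50: concentration for 50% inhibition of growth.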 Calls of active or inactive are those of the source. Rule as the data show it: active = GI50 up to about 1.1 µM and inactive = higher.

What was measured:
Assay in all cases: NCI anticancer screen, dose series, 48 h
[1] = system: NCI-H23
[2] = system: DU-145
[3] = system: Hs-578T
[4] = system: UACC-62
[5] = system: T47D
[6] = system: 786-0
[7] = system: ACHN
[8] = system: HCC 2998
[9] = system: SR
[10] = system: HL-60
[11] = system: RPMI-8226
[12] = system: A498
[13] = system: EKVX
[14] = system: MCF7
[15] = system: MDA-MB-435
[16] = system: SK-MEL-5
[17] = system: IGROV-1
[18] = system: HT-29
[19] = system: NCI/ADR-RES
[20] = system: MDA-N

Compound	GI50 [1]	GI50 [2]	GI50 [3]	GI50 [4]	GI50 [5]	GI50 [6]	GI50 [7]	GI50 [8]	GI50 [9]	GI50 [10]	GI50 [11]	GI50 [12]	GI50 [13]	GI50 [14]	GI50 [15]	GI50 [16]	GI50 [17]	GI50 [18]	GI50 [19]	GI50 [20]
CS(=O)(=O)OCCN(CCOS(C)(=O)=O)c1ccc(/C=N/c2ccc3oc(=O)ccc3c2)cc1	2.04 µM (inactive)	0.968 µM (active)	28.1 µM (inactive)	1.8 µM (inactive)	5.6 µM (inactive)	0.321 µM (active)	0.492 µM (active)	1.61 µM (inactive)	0.395 µM (active)	1.71 µM (inactive)	6.53 µM (inactive)	2 µM (inactive)	8.2 µM (inactive)	3.59 µM (inactive)	11.1 µM (inactive)	7.08 µM (inactive)	12 µM (inactive)	5.66 µM (inactive)	8.59 µM (inactive)	10.9 µM (inactive)
COc1ccc(/C=C(\C(=O)OCC(C)C)c2ccc(OC)c(OC)c2)cc1OC	> 100 µM (inactive)	> 100 µM (inactive)	> 100 µM (inactive)	> 100 µM (inactive)	> 100 µM (inactive)	> 100 µM (inactive)	> 100 µM (inactive)	> 100 µM (inactive)	> 100 µM (inactive)	> 100 µM (inactive)	> 100 µM (inactive)	> 100 µM (inactive)	> 100 µM (inactive)	> 100 µM (inactive)	> 100 µM (inactive)	> 100 µM (inactive)	> 100 µM (inactive)	> 100 µM (inactive)	> 100 µM (inactive)	> 100 µM (inactive)
COC(=O)c1cc(-c2ccc3ccccc3c2)nc(O)c1C#N	> 100 µM (inactive)	> 100 µM (inactive)	> 100 µM (inactive)	> 100 µM (inactive)	> 100 µM (inactive)	> 100 µM (inactive)	> 100 µM (inactive)	17.1 µM (inactive)	> 100 µM (inactive)	20.3 µM (inactive)	> 100 µM (inactive)	> 100 µM (inactive)	71.4 µM (inactive)	> 100 µM (inactive)	> 100 µM (inactive)	> 100 µM (inactive)	> 100 µM (inactive)	> 100 µM (inactive)	> 100 µM (inactive)	> 100 µM (inactive)
Cc1c(CNc2ccc(Cl)c(Cl)c2Cl)cnc2nc(N)nc(N)c12	0.255 µM (active)	0.294 µM (active)	17.8 µM (inactive)	0.0771 µM (active)	4.24 µM (inactive)	0.0918 µM (active)	0.3 µM (active)	3.17 µM (inactive)	0.357 µM (active)	0.607 µM (active)	2.08 µM (inactive)	> 100 µM (inactive)	4.2 µM (inactive)	0.792 µM (active)	0.107 µM (active)	0.263 µM (active)	0.499 µM (active)	0.162 µM (active)	> 100 µM (inactive)	0.0515 µM (active)
Cc1csc(NNC(=O)Nc2ccccc2)n1	> 100 µM (inactive)	> 100 µM (inactive)	> 100 µM (inactive)	> 100 µM (inactive)	> 100 µM (inactive)	> 100 µM (inactive)	> 100 µM (inactive)	> 100 µM (inactive)	> 100 µM (inactive)	> 100 µM (inactive)	> 100 µM (inactive)	> 100 µM (inactive)	> 100 µM (inactive)	> 100 µM (inactive)	> 100 µM (inactive)	> 100 µM (inactive)	> 100 µM (inactive)	> 100 µM (inactive)	> 100 µM (inactive)	> 100 µM (inactive)
Cc1c(/N=N/c2ccccc2)c(-c2ccccc2)n(C2OC(CO)C(O)C(O)C2O)c(=S)c1C#N (stereo not given)	3.36 µM (inactive)	6.17 µM (inactive)	2.86 µM (inactive)	3.6 µM (inactive)	0.245 µM (active)	5.14 µM (inactive)	3.95 µM (inactive)	5.3 µM (inactive)	> 100 µM (inactive)	3.66 µM (inactive)	4.06 µM (inactive)	14.4 µM (inactive)	13.8 µM (inactive)	4.74 µM (inactive)	4.98 µM (inactive)	2.33 µM (inactive)	5.75 µM (inactive)	6.59 µM (inactive)	17.3 µM (inactive)	4.71 µM (inactive)
O=c1[nH]c(=O)c2c3n(cc2[nH]1)CCCCC3	> 100 µM (inactive)	> 100 µM (inactive)	> 100 µM (inactive)	> 100 µM (inactive)	> 100 µM (inactive)	> 100 µM (inactive)	> 100 µM (inactive)	> 100 µM (inactive)	> 100 µM (inactive)	> 100 µM (inactive)	> 100 µM (inactive)	> 100 µM (inactive)	> 100 µM (inactive)	> 100 µM (inactive)	> 100 µM (inactive)	> 100 µM (inactive)	> 100 µM (inactive)	> 100 µM (inactive)	> 100 µM (inactive)	> 100 µM (inactive)
Clc1ccc(C2c3ccccc3-c3nc4ccccc4n32)cc1 (stereo not given)	15.5 µM (inactive)	58.2 µM (inactive)	4.92 µM (inactive)	26.3 µM (inactive)	> 27.2 µM (inactive)	17.7 µM (inactive)	23 µM (inactive)	18.9 µM (inactive)	8.99 µM (inactive)	3.65 µM (inactive)	9.75 µM (inactive)	25.1 µM (inactive)	16.5 µM (inactive)	18.3 µM (inactive)	32.7 µM (inactive)	27.4 µM (inactive)	12.6 µM (inactive)	20.9 µM (inactive)	11.8 µM (inactive)	51.3 µM (inactive)
OC(CC(CC(O)(C(F)(F)Cl)C(F)(F)Cl)=NNc1ccccc1)(C(F)(F)Cl)C(F)(F)Cl	2.41 µM (inactive)	3.3 µM (inactive)	2.45 µM (inactive)	1.66 µM (inactive)	4.11 µM (inactive)	4.54 µM (inactive)	2.79 µM (inactive)	4.23 µM (inactive)	5.79 µM (inactive)	> 10 µM (inactive)	> 10 µM (inactive)	2.54 µM (inactive)	3.27 µM (inactive)	2.94 µM (inactive)	3.57 µM (inactive)	1.71 µM (inactive)	5.62 µM (inactive)	3.06 µM (inactive)	4.05 µM (inactive)	2.87 µM (inactive)
CC1=NC(C)(COC(=O)C2(C)NC(C)(CO)CO2)COC1=O (stereo not given)	> 100 µM (inactive)	> 100 µM (inactive)	> 100 µM (inactive)	> 100 µM (inactive)	> 100 µM (inactive)	> 100 µM (inactive)	> 100 µM (inactive)	> 100 µM (inactive)	> 33 µM (inactive)	> 100 µM (inactive)	> 100 µM (inactive)	> 100 µM (inactive)	> 100 µM (inactive)	> 100 µM (inactive)	> 100 µM (inactive)	> 100 µM (inactive)	> 100 µM (inactive)	> 100 µM (inactive)	> 100 µM (inactive)	> 100 µM (inactive)
